{"source": "patent US20070129307A1", "about": "“Insulin epitopes for the treatment of type 1 diabetes” (The University of British Columbia, priority 2001, published 2007)", "key": {"[1]": {"tested_on": "HLA-A2 restricted CD8+ T cells (PBMC)", "details": "for T cell responses in diabetic patients and controls: non-diabetic and non-HLA matched controls"}, "[2]": {"target": "T1, HLA-A*0201 (Homo sapiens, UniProt P04439, D140Y/D185E/D98H/E176V/E277Q/G131W/G231S/I119V/I121R/I166T/I218V/L300P/L318F/N151K/N90K/P208A/P217A/Q86G/Q94H/R138H/R169H/T345S)", "T1 construct": "cell membrane stabilization of the HLA-A2 molecule in TAP-deficient 174×CEM.T2 cells; endogenous in cells; host or cells: 174×CEM.T2 (T2) cells, TAP-deficient", "assay": "Temporal stability (dissociation) of peptide/HLA-A*0201 complexes on T2 cells", "format": "binding", "details": "in 4 hours at 37° C., T2 cells with emetine, normalized to CMV/HLA-A2", "procedure": "The stability of complexes formed with the peptides and HLA-A2 on T2 cells was assessed, over a 4-hour period at 37° C. After peptide removal and addition of emetine to inhibit protein synthesis, T2 cells were cultured at 37° C. and the HLA-A2 expression was determined at different incubation times using anti-HLA-A2 antibody. The stability of the various peptide/HLA-A2 complexes were then normalized relative to that observed for CMV/HLA-A2 complexes set as 100%.\nThe temporal stability of peptide/HLA-A*0201 complexes was assessed as previously described (Valmori, supra). Briefly, T2 cells were cultured with synthetic peptides overnight at room temperature as performed for peptide binding assay. The following day, after removing peptide and adding emetine (10^−4 M; Sigma-Aldrich, Oakville, Ontario, Canada) to block protein synthesis, cells were incubated at 37° C. for the indicated time periods. At each time point, an aliquot of cells was washed and stained with FITC-conjugated anti-HLA-A2 monoclonal antibody (BB7.2). Surface HLA-A2 expression was assessed by flow cytometry (FACSCalibur) and MFI was recorded. The CMV peptide was used as a positive control. Results are expressed as relative complex stability =100×[(MFI with given peptide—MFI without peptide)/(MFI with CMV peptide—MFI without peptide)]."}, "[3]": {"target": "T1, HLA-A*0201", "assay": "FACS assay of peptide binding to HLA-A2 on T2 cells (Example 6)"}, "[4]": {"tested_on": "human autoreactive T cells (PBMC)", "assay": "Interferon gamma ELISPOT of PBMC from type 1 diabetes patients (Example 5)", "format": "cell-based", "details": "1 μM peptide, PBMC 20,000 per well, recent onset type 1 diabetes patients, FIG. 8"}, "[5]": {"target": "T2, H-2Kd (Mus musculus, UniProt P01902)", "T2 construct": "expressed in transfected cells; host or cells: RMAS (TAP-deficient murine cell line) transfected with H-2Kd", "T2 sequence (P01902 22-368)": "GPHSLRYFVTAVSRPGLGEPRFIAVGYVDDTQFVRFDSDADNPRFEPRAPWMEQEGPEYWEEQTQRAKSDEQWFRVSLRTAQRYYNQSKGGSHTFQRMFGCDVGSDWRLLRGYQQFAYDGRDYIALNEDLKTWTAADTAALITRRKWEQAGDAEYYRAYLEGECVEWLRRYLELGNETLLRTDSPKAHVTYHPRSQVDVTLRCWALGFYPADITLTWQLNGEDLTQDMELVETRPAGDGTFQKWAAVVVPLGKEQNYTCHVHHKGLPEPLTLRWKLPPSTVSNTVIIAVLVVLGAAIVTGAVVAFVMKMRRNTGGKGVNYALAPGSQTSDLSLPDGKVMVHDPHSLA", "T2 sequence (P01887 21-119 partner)": "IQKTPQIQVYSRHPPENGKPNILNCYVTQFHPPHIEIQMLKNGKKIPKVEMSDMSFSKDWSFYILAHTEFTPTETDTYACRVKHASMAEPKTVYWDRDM", "assay": "MHC class I stabilization assay on RMAS-Kd cells (FACS)", "format": "binding", "details": "background without peptide 6.07%", "procedure": "A peptide (for example, TUM, V7, INSL, TV1, TV2, or TV3) is added and the cells are incubated at room temperature for 1 hour, and then incubated at 37° C. for 3 hours. The cells are washed 3 times with 0.3% bovine serum albumin-phosphate buffer solution (BSA-PBS), and then stained with fluorescently labelled anti-mouse H-2Kd-FITC antibody. Fluorescent-activated cell sorting (FACS) analysis is performed to count the percentage of cells showing positive staining.\nFACS analysis was performed to quantify the percentage/proportion of antigen presenting cells (RMAS-Kd) that express stable MHC class I on their cell surface, in association with the TV1 peptide. RMAS-Kd is a transporter for antigen presentation (TAP)-deficient RMAS cell line transfected with the mouse MHC class I molecule, H-2Kd. Because the cell line is TAP deficient it cannot assemble MHC class I (in this case H-2Kd) complexes stably but requires surface stabilisation by exogenous peptides that can bind with the H-2Kd heavy chain and beta-2 microglobulin. The cell line was stained for MHC class I expression with or without TV1 peptide."}, "[6]": {"tested_on": "NOD mice", "assay": "Peptide immunisation of NOD mice, diabetes onset", "format": "in vivo, mouse", "details": "by week 18; 100 μg peptide intraperitoneally from 3 weeks of age; diabetic = two consecutive blood sugars >15 mM", "procedure": "Peptides are administered to female NOD mice in accordance with standard laboratory methods.\nThree groups of NOD mice (n=10 per group, purchased from Taconic, Germantown, N.Y., U.S.A.) were immunised beginning at three weeks of age with 100 μg of TUM, NRP-A7, or TV1 (MTV-1) peptide in PBS solution, intraperitoneally once per week for two weeks, then once every two weeks. Mice were monitored for hyperglycaemia weekly and considered to be diabetic after two consecutive blood sugars >15 mM."}, "[7]": {"tested_on": "murine autoreactive T cells (NOD spleen cells)", "assay": "Interferon-gamma ELISPOT with NOD spleen cells", "format": "cell-based, mouse", "source_text": "The effector cells (CTL) of the ELISPOT assay are contained within spleen cells from NOD mice aged 10 weeks. The spleens from these mice contain a proportion of autoreactive CTL destined to destroy pancreatic beta cells.\nThe peptide NRP-V7 was used as a positive control and is a previously described synthetic autoepitope (automimotope) of NOD mice (Amrani et al., 2000). NRP-V7 was not derived from any endogenous mammalian protein sequence but was identified by screening combinatorial peptide libraries. The peptide TUM was used as a negative control. TUM is derived from an endogenous tumour peptide not known to participate in type 1 diabetes but known to bind to the MHC class I molecule, H-2Kd."}, "[8]": {"tested_on": "autoreactive T cells in NOD pancreatic islets", "assay": "Interferon-gamma ELISPOT with T cells of NOD pancreatic islets", "format": "cell-based, mouse", "details": "FIG. 5"}, "[9]": {"tested_on": "CTL from pancreatic islets of NOD mice", "assay": "H-2Kd tetramer staining of NOD islet cells", "format": "cell-based, mouse", "details": "H-2Kd tetramers, islet cells ex vivo or after in vitro culture, FIG. 12", "source_text": "MHC class I tetramers (for example, H-2Kd tetrameric complexes) are synthesised as previously described by Altman et al. (Science 274:94-96, 1996). MHC heavy chain, modified by the addition of a C-terminal biotinylation site, and beta 2 microglobulin are expressed separately in E. coli (BL21, Stratagene, La Jolla, Calif., U.S.A.). Peptides were synthesized synthesised on a Perkin-Elmer-ABI 431A by the NAPS Unit, University of British Columbia, BC, Canada. Purified heavy chain, beta 2 microglobulin and peptide are refolded at 4° C. for 48 hours in a TRIS-based buffer, and the refolded product is concentrated, biotinylated using BirA enzyme (Avidity, Denver, Colo., U.S.A.) in the presence of biotin, ATP and Mg++ and purified by FPLC. Streptavidin-phycoerythrin conjugate is added in a 1:4 molar ratio and the tetrameric product is concentrated to approximately 1 mg/ml. The tetramer concentration is calculated based upon the concentration of biotinylated protein, quantified by Bradford assay, prior to addition of streptavidin.\nSingle cell suspensions of lymphocytes are incubated with 1 μl of a 1 mg/ml solution of MHC tetramer for 2-3 hours at 4° C. in FACS staining buffer (HBSS/FBS 2%/Sodium Azide 0.01%/EDTA 100 mM). The cells are centrifuged and washed three times before staining with antibody to CD8. […]"}}, "note": "“Also recorded” adds a separate entry of the source.", "data": [{"substance": "RLLCALTSL [IGRP293]", "values": [{"measurement": "T cell responses in diabetic patients and controls", "setting": "[1]; second study", "value": "could not be detected"}, {"measurement": "dissociation of peptide/HLA-A2 complexes", "setting": "[2]", "value": "about 20%"}]}, {"substance": "KLQVFLIVL (HTV-1 peptide epitope) [IAPP5]", "values": [{"measurement": "binding to HLA-A2", "setting": "[3]; FIG. 11, listed as HTV 1", "value": "bind to HLA-A2"}, {"measurement": "binding to HLA-A2", "setting": "[3]; FIG. 11, listed as HTV1", "value": "binds"}, {"measurement": "recognition by human autoreactive T cells (interferon-gamma ELISPOT)", "setting": "[4]", "value": "elevated HTV1 autoreactivity; also recorded: recognise"}]}, {"substance": "TUM: negative control; derived from an endogenous tumour peptide, known to bind H-2Kd (KYQAVTTTL)", "values": [{"measurement": "proportion of H-2Kd on the surface of the APC in the presence of peptide", "setting": "[5]", "value": 66, "unit": "%"}, {"measurement": "immunized mice considered diabetic", "setting": "[6]", "value": "none"}]}, {"substance": "ALWMRLLPL [Insulin2]", "values": [{"measurement": "non-diabetic control subjects that responded", "setting": "[1]; second study", "value": "three of the five"}, {"measurement": "dissociation of peptide/HLA-A2 complexes", "setting": "[2]", "value": "about 20%"}]}, {"substance": "DLMGYIPLV [HCV, reference compound]", "values": [{"measurement": "subjects responding to the peptide", "setting": "[1]; first study, all subjects", "value": "None of the subjects responded"}]}, {"substance": "KLPAVLLIL (mTV-1 peptide epitope) [TV1]", "values": [{"measurement": "proportion of H-2Kd on the surface of the APC in the presence of peptide", "setting": "[5]", "value": 64, "unit": "%"}, {"measurement": "immunized mice considered diabetic", "setting": "[6]", "value": 80, "unit": "%"}, {"measurement": "recognition by murine autoreactive T cells (interferon-gamma secretion)", "setting": "[7]; FIG. 1", "value": "recognise"}, {"measurement": "recognition by murine autoreactive T cells (interferon-gamma secretion)", "setting": "[7]; FIG. 1, listed as TV-1", "value": "high frequency of CTL that recognise TV-1"}]}, {"substance": "LLPPLLEHL [IA-2(180)]", "values": [{"measurement": "T cell responses in diabetic patients and controls", "setting": "[1]; second study", "value": "could not be detected"}]}, {"substance": "RLLPLLALL (mouse insulin derived peptide) [TV3]", "values": [{"measurement": "proportion of H-2Kd on the surface of the APC in the presence of peptide", "setting": "[5]", "value": 70, "unit": "%"}]}, {"substance": "KYNKANVFL [NRP-V7, positive control]", "values": [{"measurement": "proportion of H-2Kd on the surface of the APC in the presence of peptide", "setting": "[5]", "value": 72, "unit": "%"}, {"measurement": "proportion of H-2Kd on the surface of the APC in the presence of peptide", "setting": "[5]; listed as V7", "value": 72.71, "unit": "%"}, {"measurement": "interferon-gamma secretion by autoreactive T cells in NOD pancreatic islets", "setting": "[8]", "value": "secrete interferon-gamma"}, {"measurement": "recognition by murine autoreactive T cells (interferon-gamma secretion)", "setting": "[7]; FIG. 1", "value": "Interferon-gamma is also secreted; also recorded: recognise"}]}, {"substance": "GMAELMAGL [Phogrin331]", "values": [{"measurement": "T cell responses in diabetic patients and controls", "setting": "[1]; second study", "value": "could not be detected"}, {"measurement": "dissociation of peptide/HLA-A2 complexes", "setting": "[2]", "value": "about 20%"}]}, {"substance": "KYPAVLLIL (modified version of precursor peptide TV1 (TV2))", "values": [{"measurement": "proportion of H-2Kd on the surface of the APC in the presence of peptide", "setting": "[5]", "value": 58, "unit": "%"}, {"measurement": "recognition by CD8+ T cells (tetramer staining)", "setting": "[9]", "value": "recognize"}]}, {"substance": "LYLVCGERG [INSL]", "values": [{"measurement": "proportion of H-2Kd on the surface of the APC in the presence of peptide", "setting": "[5]", "value": 73.68, "unit": "%"}, {"measurement": "proportion of H-2Kd on the surface of the APC in the presence of peptide", "setting": "[5]; listed as INS-L", "value": 73, "unit": "%"}, {"measurement": "interferon-gamma secretion by autoreactive T cells in NOD pancreatic islets", "setting": "[8]", "value": "minimally"}]}, {"substance": "NRP-A7: positive control peptide; known synthetic peptide autoantigen recognized in the context of H-2Kd (KYNKANAFL; NRP-A7 peptide)", "values": [{"measurement": "immunized mice considered diabetic", "setting": "[6]", "value": 20, "unit": "%"}]}]}
